Values of other authors in US20090233891A1, “Pharmaceutical lotion comprising fluticasone propionate” (GLENMARK GENERICS LTD., priority 2008, published 2009).

CCC(=O)O[C@]1(C(=O)SCF)[C@H](C)C[C@H]2[C@@H]3C[C@H](F)C4=CC(=O)C=C[C@]4(C)[C@@]3(F)[C@@H](O)C[C@@]21C [Fluticasone propionate, S-(fluoromethyl) 6a, 9-difluoro-11β, 17-dihydroxy-16a-methyl-3-oxoandrosta-1,4-diene-17β-carbothioate, 17-propionate]
solubility in 95% ethanol (95% ethanol): slightly soluble
solubility in dimethyl sulfoxide (dimethyl sulfoxide): freely soluble
solubility in dimethylformamide (dimethylformamide): freely soluble
solubility in methanol (methanol): slightly soluble
solubility in water (water): practically insoluble
